Format: physicochemical
Description: The directive essentially states that if a material is classified as a surfactant in must pass certain biodegradation protocols. A surfactant was generally defined as a material capable of: 1) reducing the surface tension of water to ≤45 dynes/cm (or ≤45 mN/m) at a concentration of 0.5 wt % of the material in water; 2) forming spreading or adsorption monolayers at an air/water interface; 3) forming emulsions, microemulsions and/or micelles; and 4) adsorption at a water/solid interface. Surface tension of an aqueous solution, fluid, or mixture can readily be determined by various methods understood in the art. Generally, for stable solutions or mixtures, an equilibrium method such as the Wilhelmy plate method or Du Noüy ring method can be utilized. Alternately, for more dynamic systems, a pendant drop method can be utilized. This technique results in a fresh surface for each measurement. This method is also useful to reduce the potential for insoluble hydrophobic impurities or oils which could impact the surface tension measurement resulting in artificially low surface tension values. An example of such a surfactant assessment/classification is illustrated in the flow diagram of FIG. 3. Referring to the protocol illustrated in FIG. 3, the initial assessment is whether or not a 0.5 wt % mixture of the material being tested is soluble in water. Mixtures were prepared by adding 0.5% of the material to distilled water at 20° C. and mixing with a magnetic stir bar for one hour. If the material is soluble in water, as indicated, for example, by the formation of a clear or slightly hazy mixture, then surface tension (σ) is determined. If σ is >45 mN/m, the material is not classified as a surfactant. If σ is ≤45 mN/m, and micelles are not present, the material is not classified as a surfactant. Conversely, if micelles are present, the material is classified as a surfactant. If the material is not soluble in water, and no emulsion is present (e.g. solid particles or gels are present instead), then the material is not classified as a surfactant. If an emulsion is present (e.g. droplets are present) and the emulsion in stable, then σ is determined. If σ is >45 mN/m, the material is not classified as a surfactant. Conversely, if σ is ≤45 mN/m, the material is classified as a surfactant. If the material is not soluble in water, and an emulsion is present (e.g. droplets are present) and the emulsion is not stable, the emulsion is then centrifuged. The (clear) main phase (or supernatant) of the emulsion is further studied and the a is determined. If σ is >45 mN/m, the material is not classified as a surfactant. Conversely, if σ is ≤45 mN/m, and micelles are not present, the material is not classified as a surfactant. […]

- solubility in water: generally insoluble
- stability of the mixture in water: stable
- appearance / behaviour of the mixture in water (0.5 wt % mixture in water): formed a hazy mixture
- classification as surfactant / non-surfactant according to the protocol/flow diagram (0.5 wt % of the material in distilled water at 20° C., mixed one hour): surfactant
Compound: CN(CC(O)COCCC[Si](C)(O[Si](C)(C)C)O[Si](C)(C)C)C[C@H](O)[C@@H](O)[C@H](O)[C@H](O)CO (stereo partly shown) [Example 11, BisH-AGE-NMG]

Reference: patent US10829718B2, “Detergent composition comprising a carbinol functional trisiloxane” (Dow Silicones Corporation, priority 2016, dated 2020)
